Data set [1] has as its system Staphylococcus Epidermidis. The following applies: 2% HP.
Another data set relates to E-Coli. As to conditions: 2% HP.
The nature of data set [2]: Dissociation of PAA in aqueous solution. The following applies: pH 9.5.
Data set [3] in a line: Stability of PAA/NVPA in alkaline solution (ion-exchange chromatography). It counts as physicochemical. The following applies: for total PAA decomposed: pH adjusted to 9.3 with sodium hydroxide. How it is done: PAA is not very stable in both acidic and basic solutions (reactions 2 and 3), and is decomposed into acetic acid and oxygen easily. Additionally, PAA is decomposed by metal catalysis and hydrolysis, respectively, in an aqueous solution. […] When sodium hydroxide was used to adjust the pH of PAA solution to 9.3, about 80% of the total PAA were decomposed in 1 minute, with more than 90% being decomposed in 5 minutes. (FIG. 4).
Rapid decomposition of PAA will result in a loss of the disinfecting ability. Thus, it is critical to maintain PAA relatively stable in an alkaline solution. When pH was adjusted partially by sodium carbonate, greater than 90% of the total PAA was maintained in the 10 minutes (FIG. 4). The addition of a metal complexing agent, such as sodium pyrophosphate, etc., may be used to stabilize PAA. It is very important to maintain a relatively long pot-life of NVPA, because some microorganisms are difficult to being killed. Such microorganisms may require at least 3-5-minutes of contact time with the disinfecting detergent. Since NVPA is not very stable, the formulation of the invention is divided to two parts to preserve a long shelf life of PAA. The two parts will be mixed just prior to use. After mixing, PAA will be converted to NVPA and 90% of the total PAA will remain for at least 10 minutes.
FIG. 4. The pH of PAA solution was 9.3. The initial concentrations of PAA and HP were 0.2% (w/w %) and 4% (w/w %), respectively. The pH of the solution was adjusted by sodium hydroxide solution or sodium phosphate solution, and sodium carbonate or a stabilizer such like sodium pyrophosphate was used to stabilize PAA. The quantitative determination of PAA/NVPA was performed by ion-exchange chromatography.

Read-outs that look alike come from different tables or passages of the source.

For `OO` [HP, hydrogen peroxide], the Disinfecting efficacy in data set [1] (contact time 1 minute) is approximately 90%; in data set [1] (contact time 2 minutes), approximately 99%; in the data set on E-Coli (contact time 1 minute), approximately 90%; in the data set on E-Coli (contact time 2 minutes) it was approximately 99%.
Turning to `CC(=O)OO` [NVPA, non-volatile peracetate], the “share of initial PAA concentration existing in this state” value in data set [2] turned out to be 95%.
`CC(=O)OO` [PAA, Peracetic Acid]: the “total PAA maintained” value in data set [3] (pH adjusted partially by sodium carbonate, in 10 minutes) is recorded as “greater than 90%”. The “total PAA decomposed” value in data set [3] (in 1 minute) is recorded as “about 80%”; in data set [3] (in 5 minutes) it was “more than 90%”. Further, in data set [2], the “share of initial PAA concentration existing in this state” value is given as 5%.

These data come from patent US10226048B2 (priority 2014, dated 2019).
